How the values were obtained:
Assay in all cases: Kinase selectivity test (ThermoFisher)
Type in all cases: biochemical
Parameters in all cases: concentration or dose not given beside the values
MET (cMet) = target: T1, MET (cMet) (Homo sapiens, UniProt P08581)
T1 construct: purchased ThermoFisher USA (contract testing)
Description: (§1) Test Example 11: Kinase Selectivity Test
(§2) 1. Experimental Purpose: Tests for selectivity of the compounds of the present disclosure for a plurality of kinases were carried out to assess the safety risk of the compounds of the present disclosure.
(§3) 2. Test institution: ThermoFisher USA
(§4) 3. Testing methods: LanthaScreen binding, Z′-LYTE, Adapta
(§5) 4. Test targets: 100 targets in total

CDK8/ cyclin C = target: T2, CDK8/ cyclin C (Homo sapiens, UniProt P49336)
T2 construct: purchased ThermoFisher USA (contract testing)
T2 sequence (P49336 whole entry): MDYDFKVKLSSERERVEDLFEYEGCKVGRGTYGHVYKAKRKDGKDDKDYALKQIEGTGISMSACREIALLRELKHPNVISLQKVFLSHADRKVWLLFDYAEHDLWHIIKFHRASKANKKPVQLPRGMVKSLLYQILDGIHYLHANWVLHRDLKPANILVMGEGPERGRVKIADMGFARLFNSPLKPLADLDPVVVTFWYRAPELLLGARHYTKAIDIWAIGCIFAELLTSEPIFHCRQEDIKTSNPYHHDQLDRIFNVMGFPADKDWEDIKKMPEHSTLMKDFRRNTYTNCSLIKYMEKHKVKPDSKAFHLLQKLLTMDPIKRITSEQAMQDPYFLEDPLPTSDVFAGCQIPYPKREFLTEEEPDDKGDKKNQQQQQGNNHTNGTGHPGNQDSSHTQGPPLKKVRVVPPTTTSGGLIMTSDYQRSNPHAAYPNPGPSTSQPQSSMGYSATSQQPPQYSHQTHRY
T2 sequence (P24863 whole entry partner): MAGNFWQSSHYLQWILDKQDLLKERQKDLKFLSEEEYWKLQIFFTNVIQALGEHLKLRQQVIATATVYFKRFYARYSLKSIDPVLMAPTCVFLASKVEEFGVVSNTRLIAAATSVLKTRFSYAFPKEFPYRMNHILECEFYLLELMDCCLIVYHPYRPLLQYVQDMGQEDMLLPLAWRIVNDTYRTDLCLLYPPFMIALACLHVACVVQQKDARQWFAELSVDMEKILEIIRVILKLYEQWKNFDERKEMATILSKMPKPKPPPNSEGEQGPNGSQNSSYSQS
Description: as §1, §2, §3, §4, §5

CAMK1 (CaMK1) = target: T3, CAMK1 (CaMK1) (Homo sapiens, UniProt Q14012)
T3 construct: purchased ThermoFisher USA (contract testing)
T3 sequence (Q14012 whole entry): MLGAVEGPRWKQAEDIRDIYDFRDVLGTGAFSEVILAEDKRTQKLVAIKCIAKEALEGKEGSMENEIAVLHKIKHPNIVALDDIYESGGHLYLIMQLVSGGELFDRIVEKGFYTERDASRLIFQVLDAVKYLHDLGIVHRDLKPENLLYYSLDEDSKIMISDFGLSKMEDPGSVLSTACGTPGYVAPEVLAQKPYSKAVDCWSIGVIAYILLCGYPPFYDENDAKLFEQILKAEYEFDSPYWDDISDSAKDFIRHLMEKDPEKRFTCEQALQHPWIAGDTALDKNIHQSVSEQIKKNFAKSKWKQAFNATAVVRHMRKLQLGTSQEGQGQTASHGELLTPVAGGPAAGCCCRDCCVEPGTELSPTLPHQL
Description: as §1, §2, §3, §4, §5

KDR (VEGFR2) = target: T4, KDR (VEGFR2) (Homo sapiens, UniProt P35968)
T4 construct: purchased ThermoFisher USA (contract testing)
T4 sequence (P35968 20-1356): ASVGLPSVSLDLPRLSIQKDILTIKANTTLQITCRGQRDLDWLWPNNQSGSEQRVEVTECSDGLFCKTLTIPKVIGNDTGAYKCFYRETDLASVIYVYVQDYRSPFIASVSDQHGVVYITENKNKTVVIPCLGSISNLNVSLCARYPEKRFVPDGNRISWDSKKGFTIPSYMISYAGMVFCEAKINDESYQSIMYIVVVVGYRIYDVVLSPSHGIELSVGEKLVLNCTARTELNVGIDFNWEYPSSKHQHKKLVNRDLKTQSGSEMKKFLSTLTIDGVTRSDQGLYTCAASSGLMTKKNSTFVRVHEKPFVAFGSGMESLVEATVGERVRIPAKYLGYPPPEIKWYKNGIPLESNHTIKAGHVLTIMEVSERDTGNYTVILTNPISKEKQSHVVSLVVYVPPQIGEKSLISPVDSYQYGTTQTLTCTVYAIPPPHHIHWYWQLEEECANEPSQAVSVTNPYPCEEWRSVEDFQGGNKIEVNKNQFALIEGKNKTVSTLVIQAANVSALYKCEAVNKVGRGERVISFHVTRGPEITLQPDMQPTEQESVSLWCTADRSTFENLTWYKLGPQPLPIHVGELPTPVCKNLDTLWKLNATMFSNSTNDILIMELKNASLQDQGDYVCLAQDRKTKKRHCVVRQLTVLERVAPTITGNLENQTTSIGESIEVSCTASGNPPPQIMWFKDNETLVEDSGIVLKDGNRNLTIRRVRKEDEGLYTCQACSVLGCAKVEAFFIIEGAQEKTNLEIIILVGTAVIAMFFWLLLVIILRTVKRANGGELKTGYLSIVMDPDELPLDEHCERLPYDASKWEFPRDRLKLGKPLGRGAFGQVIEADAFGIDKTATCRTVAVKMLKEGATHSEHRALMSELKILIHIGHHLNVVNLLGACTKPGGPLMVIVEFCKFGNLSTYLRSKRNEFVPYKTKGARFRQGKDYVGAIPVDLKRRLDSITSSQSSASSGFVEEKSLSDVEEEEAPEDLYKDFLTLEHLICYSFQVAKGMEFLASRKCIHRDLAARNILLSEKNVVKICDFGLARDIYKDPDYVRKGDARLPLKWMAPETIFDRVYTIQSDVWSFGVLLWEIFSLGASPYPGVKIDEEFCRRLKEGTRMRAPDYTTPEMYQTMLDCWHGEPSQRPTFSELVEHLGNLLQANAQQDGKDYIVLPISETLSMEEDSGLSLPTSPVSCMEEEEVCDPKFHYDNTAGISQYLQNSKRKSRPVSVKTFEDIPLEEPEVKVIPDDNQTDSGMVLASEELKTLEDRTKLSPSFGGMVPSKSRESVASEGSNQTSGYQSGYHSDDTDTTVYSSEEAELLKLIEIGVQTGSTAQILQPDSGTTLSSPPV
Description: as §1, §2, §3, §4, §5

GSK3A (GSK3 alpha) = target: T5, GSK3A (GSK3 alpha) (Homo sapiens, UniProt P49840)
T5 construct: purchased ThermoFisher USA (contract testing)
T5 sequence (P49840 whole entry): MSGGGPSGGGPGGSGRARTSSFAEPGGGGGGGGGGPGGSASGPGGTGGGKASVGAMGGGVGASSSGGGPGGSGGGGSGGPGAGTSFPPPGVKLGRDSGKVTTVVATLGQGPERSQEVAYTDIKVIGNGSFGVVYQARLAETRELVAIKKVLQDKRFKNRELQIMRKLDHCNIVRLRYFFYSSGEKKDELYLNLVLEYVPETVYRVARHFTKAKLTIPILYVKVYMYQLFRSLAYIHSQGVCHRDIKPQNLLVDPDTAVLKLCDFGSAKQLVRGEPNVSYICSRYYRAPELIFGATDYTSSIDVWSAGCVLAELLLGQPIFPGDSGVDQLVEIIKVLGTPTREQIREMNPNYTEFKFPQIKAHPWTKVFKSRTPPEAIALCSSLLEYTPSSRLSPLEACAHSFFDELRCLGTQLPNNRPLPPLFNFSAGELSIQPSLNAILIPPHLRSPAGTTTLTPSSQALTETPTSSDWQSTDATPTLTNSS
Description: as §1, §2, §3, §4, §5

FLT3 D835Y = target: T6, FLT3 D835Y (Homo sapiens, UniProt P36888, D835Y)
T6 construct: purchased ThermoFisher USA (contract testing)
T6 sequence (P36888 27-993 D835Y): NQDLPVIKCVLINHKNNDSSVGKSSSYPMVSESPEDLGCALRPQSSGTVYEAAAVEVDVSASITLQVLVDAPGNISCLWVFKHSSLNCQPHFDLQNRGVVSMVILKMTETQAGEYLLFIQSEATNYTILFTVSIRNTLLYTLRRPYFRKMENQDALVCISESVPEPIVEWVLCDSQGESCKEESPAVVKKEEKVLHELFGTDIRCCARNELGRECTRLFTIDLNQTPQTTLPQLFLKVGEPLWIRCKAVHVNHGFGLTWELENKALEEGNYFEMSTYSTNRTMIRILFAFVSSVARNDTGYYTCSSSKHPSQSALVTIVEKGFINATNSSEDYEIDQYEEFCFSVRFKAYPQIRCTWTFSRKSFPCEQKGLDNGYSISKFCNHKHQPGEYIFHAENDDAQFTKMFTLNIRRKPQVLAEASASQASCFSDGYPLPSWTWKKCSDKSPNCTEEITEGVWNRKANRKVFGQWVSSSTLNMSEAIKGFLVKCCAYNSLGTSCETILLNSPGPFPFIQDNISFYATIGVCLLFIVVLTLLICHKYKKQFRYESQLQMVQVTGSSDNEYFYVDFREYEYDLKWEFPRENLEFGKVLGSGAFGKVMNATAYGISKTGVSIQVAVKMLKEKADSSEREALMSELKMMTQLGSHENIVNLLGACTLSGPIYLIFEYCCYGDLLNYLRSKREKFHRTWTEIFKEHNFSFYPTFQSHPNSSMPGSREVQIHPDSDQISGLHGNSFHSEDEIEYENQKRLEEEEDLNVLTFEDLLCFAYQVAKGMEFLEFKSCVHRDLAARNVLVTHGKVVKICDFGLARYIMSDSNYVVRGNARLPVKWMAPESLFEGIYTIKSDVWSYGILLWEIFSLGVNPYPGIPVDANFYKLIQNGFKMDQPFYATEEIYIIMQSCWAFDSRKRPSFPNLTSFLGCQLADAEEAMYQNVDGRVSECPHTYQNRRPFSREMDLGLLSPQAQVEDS
Description: as §1, §2, §3, §4, §5

MAPKAPK2 = target: T7, MAPKAPK2 (Homo sapiens, UniProt P49137)
T7 construct: purchased ThermoFisher USA (contract testing)
Description: as §1, §2, §3, §4, §5

SGK (SGK1) = target: T8, SGK (SGK1) (Homo sapiens, UniProt O00141)
T8 construct: purchased ThermoFisher USA (contract testing)
T8 sequence (O00141 1-431): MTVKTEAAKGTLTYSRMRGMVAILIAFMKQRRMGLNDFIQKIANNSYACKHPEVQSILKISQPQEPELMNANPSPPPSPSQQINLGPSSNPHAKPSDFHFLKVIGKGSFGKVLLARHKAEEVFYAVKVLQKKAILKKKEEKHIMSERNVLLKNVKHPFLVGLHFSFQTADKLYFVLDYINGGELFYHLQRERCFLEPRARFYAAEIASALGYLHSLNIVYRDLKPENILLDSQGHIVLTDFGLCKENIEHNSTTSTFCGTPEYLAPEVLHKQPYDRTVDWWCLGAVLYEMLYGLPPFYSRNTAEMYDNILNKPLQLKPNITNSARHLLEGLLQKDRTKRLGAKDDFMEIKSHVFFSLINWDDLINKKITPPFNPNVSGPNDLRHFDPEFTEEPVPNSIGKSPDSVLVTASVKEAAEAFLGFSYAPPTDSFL
Description: as §1, §2, §3, §4, §5

GRK4 = target: T9, GRK4 (Homo sapiens, UniProt P32298)
T9 construct: purchased ThermoFisher USA (contract testing)
Description: as §1, §2, §3, §4, §5

GSK3B (GSK3 beta) = target: T10, GSK3B (GSK3 beta) (Homo sapiens, UniProt P49841)
T10 construct: purchased ThermoFisher USA (contract testing)
T10 sequence (P49841 whole entry): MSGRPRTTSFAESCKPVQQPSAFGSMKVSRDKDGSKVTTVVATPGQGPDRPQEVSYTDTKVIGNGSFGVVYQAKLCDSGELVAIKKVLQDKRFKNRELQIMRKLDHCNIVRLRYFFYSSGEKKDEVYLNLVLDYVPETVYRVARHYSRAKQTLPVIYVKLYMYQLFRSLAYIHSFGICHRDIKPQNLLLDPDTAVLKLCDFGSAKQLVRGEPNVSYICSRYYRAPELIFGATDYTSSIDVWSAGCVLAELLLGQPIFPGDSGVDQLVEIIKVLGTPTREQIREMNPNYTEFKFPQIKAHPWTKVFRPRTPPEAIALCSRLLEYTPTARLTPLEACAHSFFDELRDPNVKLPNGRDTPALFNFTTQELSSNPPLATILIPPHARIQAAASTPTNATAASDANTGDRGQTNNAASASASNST
Description: as §1, §2, §3, §4, §5

T1 sequence (P08581 25-1390): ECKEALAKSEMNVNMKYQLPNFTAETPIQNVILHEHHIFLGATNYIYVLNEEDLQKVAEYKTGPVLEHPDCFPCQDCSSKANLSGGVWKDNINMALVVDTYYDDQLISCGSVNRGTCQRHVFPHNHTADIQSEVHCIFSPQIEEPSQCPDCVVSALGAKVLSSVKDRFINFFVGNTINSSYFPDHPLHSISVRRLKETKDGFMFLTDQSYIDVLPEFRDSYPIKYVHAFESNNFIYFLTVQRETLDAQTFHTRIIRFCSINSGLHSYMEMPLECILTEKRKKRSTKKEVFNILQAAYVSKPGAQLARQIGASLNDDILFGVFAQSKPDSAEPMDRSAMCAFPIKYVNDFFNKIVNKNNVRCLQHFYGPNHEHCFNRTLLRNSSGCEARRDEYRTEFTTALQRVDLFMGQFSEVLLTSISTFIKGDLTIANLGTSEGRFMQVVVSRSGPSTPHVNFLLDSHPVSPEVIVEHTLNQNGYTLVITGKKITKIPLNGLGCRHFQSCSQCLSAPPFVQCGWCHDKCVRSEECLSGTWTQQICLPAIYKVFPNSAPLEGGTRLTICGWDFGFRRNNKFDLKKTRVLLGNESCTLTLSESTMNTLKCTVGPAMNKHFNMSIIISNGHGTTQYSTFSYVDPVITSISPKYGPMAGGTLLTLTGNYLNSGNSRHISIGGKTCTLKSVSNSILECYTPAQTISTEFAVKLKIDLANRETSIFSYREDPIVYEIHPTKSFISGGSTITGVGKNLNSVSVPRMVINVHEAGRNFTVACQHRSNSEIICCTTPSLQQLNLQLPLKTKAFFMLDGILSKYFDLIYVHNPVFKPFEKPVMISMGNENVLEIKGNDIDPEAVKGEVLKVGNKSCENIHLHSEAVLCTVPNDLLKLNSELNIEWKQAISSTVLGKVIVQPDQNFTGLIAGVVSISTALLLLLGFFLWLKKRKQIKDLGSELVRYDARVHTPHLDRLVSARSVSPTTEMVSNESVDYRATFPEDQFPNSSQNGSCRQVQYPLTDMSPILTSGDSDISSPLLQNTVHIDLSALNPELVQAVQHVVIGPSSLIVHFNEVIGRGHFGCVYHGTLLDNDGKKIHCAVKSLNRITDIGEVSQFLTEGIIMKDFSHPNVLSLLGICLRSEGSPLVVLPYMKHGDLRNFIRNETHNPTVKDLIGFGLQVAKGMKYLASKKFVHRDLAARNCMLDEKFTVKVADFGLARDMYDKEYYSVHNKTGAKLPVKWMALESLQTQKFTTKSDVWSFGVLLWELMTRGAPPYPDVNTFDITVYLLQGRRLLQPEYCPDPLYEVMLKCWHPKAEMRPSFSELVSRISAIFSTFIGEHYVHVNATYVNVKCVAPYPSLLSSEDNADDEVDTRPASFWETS

## C[C@@H]1OCC2(CCN(c3ncc(Sc4ccnc(N5CC(C(C)(C)O)C5)c4Cl)nc3CO)CC2)[C@@H]1N [Example 12, 2-(1-(4-(5-((3S,4S)-4-amino-3-methyl-2-oxa-8-azaspiro[4.5]decan-8-yl)-6-(hydroxymethyl)pyrazin-2-ylthio)-3-chloropyridin-2-yl)azetidin-3-yl)propan-2-ol]
MET (cMet)
  Inhibition (%) Target 1: −1%
  Inhibition (%) Target 2: 16%
  Inhibition (%) Mean value: 7%
CDK8/ cyclin C
  Inhibition (%) Target 1: 7%
  Inhibition (%) Target 2: −3%
  Inhibition (%) Mean value: 2%
CAMK1 (CaMK1)
  Inhibition (%) Target 1: −9%
  Inhibition (%) Target 2: −16%
  Inhibition (%) Mean value: −12%
KDR (VEGFR2)
  Inhibition (%) Target 1: 3%
  Inhibition (%) Target 2: 4%
  Inhibition (%) Mean value: 3%
GSK3A (GSK3 alpha)
  Inhibition (%) Target 1: 9%
  Inhibition (%) Target 2: 8%
  Inhibition (%) Mean value: 8%
FLT3 D835Y
  Inhibition (%) Target 1: 5%
  Inhibition (%) Target 2: 6%
  Inhibition (%) Mean value: 6%
MAPKAPK2
  Inhibition (%) Target 1: 31%
  Inhibition (%) Target 2: 27%
  Inhibition (%) Mean value: 29%
SGK (SGK1)
  Inhibition (%) Target 1: 1%
  Inhibition (%) Target 2: 2%
  Inhibition (%) Mean value: 1%
GRK4
  Inhibition (%) Target 1: 9%
  Inhibition (%) Target 2: 7%
  Inhibition (%) Mean value: 8%
GSK3B (GSK3 beta)
  Inhibition (%) Target 1: 7%
  Inhibition (%) Target 2: 7%
  Inhibition (%) Mean value: 7%

## C[C@@H]1OCC2(CCN(c3cnc(Sc4ccnc(N)c4Cl)c(N)n3)CC2)[C@@H]1N [TNO-155, reference compound]
MET (cMet)
  Inhibition (%) Target 1: 42%
  Inhibition (%) Target 2: 40%
  Inhibition (%) Mean value: 41%
CDK8/ cyclin C
  Inhibition (%) Target 1: 89%
  Inhibition (%) Target 2: 89%
  Inhibition (%) Mean value: 89%
CAMK1 (CaMK1)
  Inhibition (%) Target 1: 55%
  Inhibition (%) Target 2: 46%
  Inhibition (%) Mean value: 51%
KDR (VEGFR2)
  Inhibition (%) Target 1: 73%
  Inhibition (%) Target 2: 73%
  Inhibition (%) Mean value: 73%
GSK3A (GSK3 alpha)
  Inhibition (%) Target 1: 92%
  Inhibition (%) Target 2: 87%
  Inhibition (%) Mean value: 90%
FLT3 D835Y
  Inhibition (%) Target 1: 71%
  Inhibition (%) Target 2: 69%
  Inhibition (%) Mean value: 70%
MAPKAPK2
  Inhibition (%) Target 1: 106%
  Inhibition (%) Target 2: 107%
  Inhibition (%) Mean value: 106%
SGK (SGK1)
  Inhibition (%) Target 1: 62%
  Inhibition (%) Target 2: 57%
  Inhibition (%) Mean value: 60%
GRK4
  Inhibition (%) Target 1: 96%
  Inhibition (%) Target 2: 95%
  Inhibition (%) Mean value: 95%
GSK3B (GSK3 beta)
  Inhibition (%) Target 1: 96%
  Inhibition (%) Target 2: 96%
  Inhibition (%) Mean value: 96%

Source: US20230212180A1, “SUBSTITUTED PYRAZINE COMPOUND, PHARMACEUTICAL COMPOSITION COMPRISING SAME, AND USE THEREOF” (Sichuan Kelun-Biotech Biopharmaceutical Co., Ltd., priority 2020, published 2023)
